Reference: PubChem BioAssay (NCI)
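Assay format: 96-well plates, 48-hour exposure. TGI is the concentration that stops growth completely.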

Assays:
Assay in all cases: NCI tumour cell line growth inhibition, 48 h
TK-10 renal = test system: TK-10 renal
HL-60(TB) leukemia = test system: HL-60(TB) leukemia
NCI-H460 lung = test system: NCI-H460 lung
EKVX NSCLC = test system: EKVX NSCLC
BT-549 breast = test system: BT-549 breast
U251 CNS = test system: U251 CNS
UACC-257 melanoma = test system: UACC-257 melanoma
K-562 leukemia = test system: K-562 leukemia
HOP-62 NSCLC = test system: HOP-62 NSCLC
SK-MEL-5 melanoma = test system: SK-MEL-5 melanoma
CAKI-1 renal = test system: CAKI-1 renal
786-0 renal = test system: 786-0 renal
RXF 393 renal = test system: RXF 393 renal
CCRF-CEM leukemia = test system: CCRF-CEM leukemia
HCT-116 colon = test system: HCT-116 colon
MCF7 breast = test system: MCF7 breast
KM12 colon = test system: KM12 colon
OVCAR-3 ovarian = test system: OVCAR-3 ovarian
MALME-3M melanoma = test system: MALME-3M melanoma
SW-620 colon = test system: SW-620 colon
A498 renal = test system: A498 renal
HT29 colon = test system: HT29 colon
UACC-62 melanoma = test system: UACC-62 melanoma
HOP-92 NSCLC = test system: HOP-92 NSCLC
HS 578T breast = test system: HS 578T breast
SN12C renal = test system: SN12C renal
NCI-H226 lung = test system: NCI-H226 lung
A549 NSCLC = test system: A549 NSCLC
NCI/ADR-RES ovarian = test system: NCI/ADR-RES ovarian
SK-MEL-2 melanoma = test system: SK-MEL-2 melanoma
SF-295 CNS = test system: SF-295 CNS
OVCAR-4 ovarian = test system: OVCAR-4 ovarian
SK-OV-3 ovarian = test system: SK-OV-3 ovarian
OVCAR-5 ovarian = test system: OVCAR-5 ovarian
SF-268 CNS = test system: SF-268 CNS
MDA-MB-231 breast = test system: MDA-MB-231 breast
UO-31 renal = test system: UO-31 renal
HCT-15 colon = test system: HCT-15 colon
T-47D breast = test system: T-47D breast
LOX IMVI melanoma = test system: LOX IMVI melanoma
RPMI-8226 leukemia = test system: RPMI-8226 leukemia
MOLT-4 leukemia = test system: MOLT-4 leukemia
PC-3 prostate = test system: PC-3 prostate
NCI-H522 lung = test system: NCI-H522 lung
COLO 205 colon = test system: COLO 205 colon
SF-539 CNS = test system: SF-539 CNS
OVCAR-8 ovarian = test system: OVCAR-8 ovarian
ACHN renal = test system: ACHN renal
HCC-2998 colon = test system: HCC-2998 colon
NCI-H23 lung = test system: NCI-H23 lung
IGROV1 ovarian = test system: IGROV1 ovarian
DU-145 prostate = test system: DU-145 prostate
SNB-75 CNS = test system: SNB-75 CNS
MDA-N = test system: MDA-N
SR leukemia = test system: SR leukemia
SK-MEL-28 melanoma = test system: SK-MEL-28 melanoma
MDA-MB-435 = test system: MDA-MB-435
SNB-19 CNS = test system: SNB-19 CNS
M14 melanoma = test system: M14 melanoma

Measured: TGI

CCN(CC)C(=S)SC1C(=O)NC(=O)NC1=O
6.06 µM: A498 renal
12.7 µM: NCI-H460 lung
not listed: SNB-19 CNS | M14 melanoma
> 100 µM: all other assays above

Cc1nc(C)c(N2CCN(C(=O)O)CC2)c(=O)[nH]1
not listed: SK-MEL-2 melanoma | OVCAR-5 ovarian | SNB-75 CNS
> 100 µM: all other assays above

CN(C)Cc1ccc(C(C)(C)C)cc1-c1cc(C(C)(C)C)ccc1CN(C)C
41.6 µM: M14 melanoma
51.7 µM: UACC-257 melanoma
79.6 µM: MALME-3M melanoma
30.2 µM: HCC-2998 colon
37.9 µM: COLO 205 colon
> 100 µM: all other assays above

O/C(=C\c1nc2ccccc2nc1/C=C(\O)c1ccc(F)cc1)c1ccc(F)cc1
not listed: SF-295 CNS | SK-OV-3 ovarian
> 100 µM: all other assays above
